Molecules are shown by their SMILES.

In general, IC50 refers to the point on the concentration scale where inhibition reaches its midpoint.

For this test, the target named is human recombinant Btk (Homo sapiens, UniProt Q06187). As to the kind of experiment: Btk Enzymatic Activity Assay (Caliper-based kinase assay). As to conditions: human recombinant Btk 2 nM, ATP 40 μM, peptide substrate 1 μM, room temperature for 3 h. It is filed as biochemical.
Chain of human recombinant Btk (Q06187 whole entry): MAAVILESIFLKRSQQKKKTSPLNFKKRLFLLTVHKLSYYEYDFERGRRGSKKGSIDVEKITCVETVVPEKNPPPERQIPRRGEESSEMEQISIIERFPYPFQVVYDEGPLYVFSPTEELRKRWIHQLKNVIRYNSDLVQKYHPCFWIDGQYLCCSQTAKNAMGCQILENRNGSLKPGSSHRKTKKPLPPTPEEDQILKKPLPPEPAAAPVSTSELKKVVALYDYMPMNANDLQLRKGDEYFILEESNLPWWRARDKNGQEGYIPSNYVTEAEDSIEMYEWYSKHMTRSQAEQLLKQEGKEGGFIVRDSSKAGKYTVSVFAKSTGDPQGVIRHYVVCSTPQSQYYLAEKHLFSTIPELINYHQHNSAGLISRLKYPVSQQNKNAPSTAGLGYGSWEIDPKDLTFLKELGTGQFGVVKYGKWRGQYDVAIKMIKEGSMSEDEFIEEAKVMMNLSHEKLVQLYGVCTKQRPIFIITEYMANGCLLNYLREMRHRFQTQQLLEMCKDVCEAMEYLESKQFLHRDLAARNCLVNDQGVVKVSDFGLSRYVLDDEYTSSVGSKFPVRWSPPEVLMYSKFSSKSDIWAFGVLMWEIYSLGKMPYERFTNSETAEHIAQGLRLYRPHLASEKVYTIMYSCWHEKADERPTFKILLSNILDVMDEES
Protocol: A Caliper-based kinase assay (Caliper Life Sciences, Hopkinton, Mass.) was used to measure inhibition of Btk kinase activity of a compound of Formula (I). […] The reaction was then terminated with EDTA, final concentration 20 mM and the phosphorylated reaction product was quantified on a Caliper Desktop Profiler (Caliper LabChip 3000).
Take `N#CC(=CC1CC1)C(=O)N1CCC(c2cc3[nH]nc(N)c3c(-c3ccc(Oc4ccccc4)cc3)n2)CC1` [Example 8, 2-(4-(3-amino-4-(4-phenoxyphenyl)-1H-pyrazolo[4,3-c]pyridin-6-yl)piperidine-1-carbonyl)-3-cyclopropylacrylonitrile]: the half-maximal inhibitory concentration (IC50) turned out to be 2 nM.
Under `N#CC(=CC1CC1)C(=O)N1CCCC(c2cc3[nH]nc(N)c3c(-c3ccc(Oc4ccccc4)cc3)n2)C1` (centres unmarked) [Example 9, 2-(3-(3-amino-4-(4-phenoxyphenyl)-1H-pyrazolo[4,3-c]pyridin-6-yl)piperidine-1-carbonyl)-3-cyclopropylacrylonitrile] stands 1.1 nM; under `N#CC(=CC1CC1)C(=O)N1CCCC1Cc1cc2[nH]nc(N)c2c(-c2ccc(Oc3ccccc3)cc2)n1` (centres unmarked) [Example 10, 2-(2-((3-amino-4-(4-phenoxyphenyl)-1H-pyrazolo[4,3-c]pyridin-6-yl)-methyl)pyrrolidine-1-carbonyl)-3-cyclopropylacrylonitrile], 2 nM; under `CC(C)C=C(C#N)C(=O)N1CCC(Cc2cc3[nH]nc(N)c3c(-c3ccc(Oc4ccccc4)cc3)n2)C1` (centres unmarked) [Example 10A, 2-(3-((3-amino-4-(4-phenoxyphenyl)-1H-pyrazolo[4,3-c]pyridin-6-yl)methyl)-pyrrolidine-1-carbonyl)-4-methylpent-2-enenitrile], 1.2 nM.
Under `CC(C)C=C(C#N)C(=O)N1CCC[C@@H](c2cc3[nH]nc(N)c3c(-c3ccc(Oc4ccccc4)cc3)n2)C1` [Example 11, (R)-2-(3-(3-amino-4-(4-phenoxyphenyl)-1H-pyrazolo[4,3-c]pyridin-6-yl)piperidine-1-carbonyl)-4-methylpent-2-enenitrile] stands 9.3 nM; under `CC(C)C=C(C#N)C(=O)N1CCC[C@H](c2cc3[nH]nc(N)c3c(-c3ccc(Oc4ccccc4)cc3)n2)C1` [Example 11A, (S)-2-(3-(3-amino-4-(4-phenoxyphenyl)-1H-pyrazolo[4,3-c]pyridin-6-yl)piperidine-1-carbonyl)-4-methylpent-2-enenitrile], 15.5 nM; under `CC(C)C=C(C#N)C(=O)N1CCC[C@H]1c1cc2[nH]nc(N)c2c(-c2ccc(Oc3ccccc3)cc2)n1` [Example 11B, (S)-2-(2-(3-amino-4-(4-phenoxyphenyl)-1H-pyrazolo[4,3-c]pyridin-6-yl)pyrrolidine-1-carbonyl)-4-methylpent-2-enenitrile], 13 nM.
Under `CC(C)C=C(C#N)C(=O)N1CCC[C@@H]1c1cc2[nH]nc(N)c2c(-c2ccc(Oc3ccccc3)cc2)n1` [Example 11C, (R)-2-(2-(3-amino-4-(4-phenoxyphenyl)-1H-pyrazolo[4,3-c]pyridin-6-yl)pyrrolidine-1-carbonyl)-4-methylpent-2-enenitrile] stands 13.6 nM.
